Values quoted from earlier work, collected in patent US8354043B2, “Natural gas odorization” (Enersol Inc., N.A.L.P., priority 2008, dated 2013).
Structures can show the parent of a compound that is named as a salt.

settings: 20° C. and 1 atm

Row | Compound | Pvap @ 20° C. (vapor pressure) [psi]
1 | O=C1CCCO1 [Compound 17, γ-Butyrolactone] | 0.03
2 | CCCC(=O)C(C)=O [Compound 24, 2,3-Hexanedione] | 0.19
3 | CC(=O)CC(C)=O [Compound 25, Aceylacetone] | 0.13
4 | CC(=O)CCC(C)=O [Compound 27, 2,5-Hexanedione] | 0.01
5 | O=CC1CCCCC1 [Compound 34, Cyclohexanal] | 0.05
6 | O=CC1CCCC1 [Compound 36, Cyclopentaldehyde] | 0.17
7 | CC(=O)C=O [Compound 42, 2-Oxo-propanal] | 0.52
8 | CC=CC=O [Compound 43, 2-Butenal] | 0.58
9 | CCCOC=O [Compound 48, Propyl formate] | 1.60
10 | CC(C)OC=O [Compound 49, Isopropyl formate] | 2.67

same assay, conditions: 25° C. and 1 atm

Row | Compound | Pvap @ 25° C. (vapor pressure)
11 | 3-Cyclohex-1-one [Compound 10] | 0.04 psi
12 | O=c1ccocc1 [Compound 2, 4-Pyrone] | 0.004 psi
13 | O=C1C=CCCC1 [Compound 9, 2-Cyclohex-2-en-1-one] | 0.07 psi
14 | O=C1CCCCC1 [Compound 11, Cyclohexanone] | 0.08 psi
15 | CC(=O)C1CCCCC1 [Compound 12, Cyclohexyl methyl ketone] | .02 psi
16 | CC(=O)C1=CCCCC1 [Compound 13, 1-(1-Cyclohexen-1-yl)-ethanone] | 0.003 psi
17 | O=C1CC=CO1 [Compound 15, 2(3H)-Furanone] | 0.02 psi
18 | O=C1CCCO1 [Compound 17, γ-Butyrolactone] | 0.01 psi
19 | O=C1C=CCC1 [Compound 18, 2-Cyclopenten-1-one] | 0.18 psi
20 | CC(=O)C1CCCC1 [Compound 21, 1-Cyclopentyl-ethanone] | 0.07 psi
21 | CCC(=O)C(C)=O [Compound 23, 2,3-Petanedione] | 0.60 psi
22 | CCCC(=O)C(C)=O [Compound 24, 2,3-Hexanedione] | 0.06 psi
23 | CC(=O)CC(C)=O [Compound 25, Aceylacetone] | 0.06 psi
24 | CCC(=O)CC(C)=O [Compound 26, 2,4-Hexandione] | 0.06 psi
25 | CC(=O)CCC(C)=O [Compound 27, 2,5-Hexanedione] | 0.06 psi
26 | C=CC(C)=O [Compound 28, Methyl vinyl ketone] | 2.94 psi
27 | C=CC(=O)CC [Compound 29, Ethyl vinyl ketone] | 0.74 psi
28 | O=CC=O [Compound 38, Ethanedial] | 4.93 psi
29 | O=CCC=O [Compound 39, Malondialdehyde] | 0.09 psi
30 | O=CCCCC=O [Compound 41, Pentane-1,5-dial] | 0.01 psi
31 | CCOC=O [Compound 47, Ethyl formate] | 4.74 psi
